Experimental findings from ChEMBL document CHEMBL1201862, “PubChem BioAssay data set” (2004) are described below.

Among the test systems are A549; ACHN; BT-549; CCRF-CEM; DU-145; HCT-116; HCT-15; HOP-62; K562; NCI-H226; NCI-H23; NCI/ADR-RES; OVCAR-3; OVCAR-4; PC-3; RXF 393; SK-MEL-5; U-251; UO-31; NCI-H522.
Experiment in all cases: NCI tumour cell line growth inhibition, 48 h

Each structure is given as a SMILES string.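 Results reflect a 48-hour exposure of cells in 96-well plates to compound at five concentrations. At the GI50, growth is halved.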 Calls of active or inactive are those of the source. Cut-off read from the data, not from the text of the source: active = GI50 up to about 1.1 µM and inactive = higher. Peptide text beside a SMILES is read from it. * marks the point of attachment. Cbz = O=C(OCc1ccccc1)*; OBn = c1ccc(CO*)cc1

Regarding `COc1ccc(/C=N/NC(=O)c2cnc3[nH]c(=O)n(C)c(=O)c3c2)cc1`, the GI50 is > 100 µM (inactive) with A549; 44 µM (inactive) with ACHN; > 100 µM (inactive) with BT-549; > 100 µM (inactive) in the experiment on CCRF-CEM; > 100 µM (inactive) in the experiment with DU-145; 57.5 µM (inactive) in the experiment on HCT-116. Also, the GI50 with HCT-15 was greater than 100 µM; in the experiment on HOP-62, 44.3 µM (inactive); in the experiment on K562 it was > 100 µM (inactive); in the experiment with NCI-H226 it was 64.1 µM (inactive); in the experiment with NCI-H23, > 100 µM (inactive); in the experiment with NCI/ADR-RES it was 97.3 µM (inactive). In addition, the GI50 with OVCAR-3 was > 100 µM (inactive); with OVCAR-4 it was > 100 µM (inactive); in the experiment with PC-3 it was > 100 µM (inactive); in the experiment with RXF 393, 38.3 µM (inactive); with SK-MEL-5, > 100 µM (inactive); with U-251 it was 36.7 µM (inactive). In addition, in the experiment with UO-31, the GI50 is > 100 µM (inactive).
As for `N#CCC(=O)c1cc(OCc2cc(OCc3ccc(Br)cc3)cc(OCc3ccc(Br)cc3)c2)cc(OCc2cc(OCc3ccc(Br)cc3)cc(OCc3ccc(Br)cc3)c2)c1`, the GI50 was > 100 µM (inactive) in the experiment on A549; > 100 µM (inactive) with ACHN; > 100 µM (inactive) in the experiment on BT-549; > 100 µM (inactive) with DU-145; > 100 µM (inactive) in the experiment with HCT-116; greater than 100 µM with HCT-15. In addition, the GI50 was > 100 µM (inactive) with HOP-62; 0.264 µM (active) in the experiment with K562; > 100 µM (inactive) in the experiment on NCI-H226; > 100 µM (inactive) in the experiment on NCI-H23; > 100 µM (inactive) in the experiment on NCI-H522; > 100 µM (inactive) in the experiment on NCI/ADR-RES. Moreover, the GI50 in the experiment on OVCAR-3, in the experiment with OVCAR-4, in the experiment on PC-3, with SK-MEL-5, with U-251 and in the experiment with UO-31 was > 100 µM (inactive) in each case.
Take `CCOC(=O)c1nc2ccc(C(F)(F)F)cc2nc1Oc1cc(OC)cc(OC)c1`: the GI50 was > 100 µM (inactive) in the experiment with A549; > 100 µM (inactive) in the experiment on ACHN; > 100 µM (inactive) in the experiment with BT-549; > 100 µM (inactive) in the experiment with CCRF-CEM; 87.3 µM (inactive) in the experiment on DU-145; > 100 µM (inactive) in the experiment on HCT-116. Besides, the GI50 is greater than 100 µM with HCT-15; 65.6 µM (inactive) in the experiment with HOP-62; > 100 µM (inactive) in the experiment on K562; 67.8 µM (inactive) with NCI-H226; > 100 µM (inactive) in the experiment with NCI/ADR-RES; > 100 µM (inactive) with OVCAR-3. For the same compound, the GI50 with OVCAR-4 was 26.4 µM (inactive); in the experiment with PC-3 it was > 100 µM (inactive); in the experiment on RXF 393, > 100 µM (inactive); in the experiment on SK-MEL-5, 29 µM (inactive); in the experiment with U-251 it was 87.9 µM (inactive); in the experiment with UO-31, > 100 µM (inactive).
Consider `COc1ccc(/C=N/NC(=O)c2ccccc2Nc2ccccc2C(=O)N/N=C/c2ccc(OC)c(OC)c2)cc1OC`, for which the GI50 in the experiment with A549, with ACHN, in the experiment with BT-549, with CCRF-CEM, in the experiment with DU-145 and with HCT-116 was > 100 µM (inactive) each time. Further, the GI50 with HCT-15 is greater than 100 µM; in the experiment with HOP-62, > 100 µM (inactive); in the experiment on K562, > 100 µM (inactive); in the experiment on NCI-H226, > 100 µM (inactive); in the experiment with NCI-H23, > 100 µM (inactive); with NCI/ADR-RES it was > 100 µM (inactive). The GI50 in the experiment on OVCAR-3, in the experiment on OVCAR-4, in the experiment with PC-3, in the experiment with RXF 393, in the experiment with SK-MEL-5 and in the experiment with U-251 was > 100 µM (inactive) each time. The GI50 in the experiment on UO-31 is > 100 µM (inactive).
On to `Cc1cc2c(C(C)C)c(O)c(O)c(/C=N/c3cc(C(F)(F)F)ccc3Cl)c2c(O)c1-c1c(C)cc2c(C(C)C)c(O)c(O)c(/C=N/c3cc(C(F)(F)F)ccc3Cl)c2c1O`, for which the GI50 in the experiment on A549 is 38.5 µM (inactive); in the experiment with ACHN, 24.9 µM (inactive); in the experiment on BT-549 it was 28.3 µM (inactive); with CCRF-CEM it was > 100 µM (inactive); with DU-145, > 100 µM (inactive); in the experiment with HCT-116, 74.8 µM (inactive). Further, the GI50 with HCT-15 is 34.8 µM; in the experiment on HOP-62, 70.5 µM (inactive); in the experiment on K562, 39.4 µM (inactive); in the experiment with NCI-H226, 29 µM (inactive); with NCI-H23, 57.8 µM (inactive); in the experiment with NCI-H522, 21.5 µM (inactive). Further, the GI50 was 63.5 µM (inactive) in the experiment with NCI/ADR-RES; 37.3 µM (inactive) in the experiment with OVCAR-3; 35 µM (inactive) in the experiment with PC-3; 28.8 µM (inactive) in the experiment with RXF 393; 23.6 µM (inactive) in the experiment on SK-MEL-5; 19.3 µM (inactive) in the experiment on U-251. Also, in the experiment with UO-31, the GI50 was 30.2 µM (inactive).
Consider `CC(C(N)C(=O)NC(C(=O)O)C1OC(n2ccc(=O)[nH]c2=O)C(O)C1O)C(O)c1ccc(O)cn1` (configuration not stated), for which the GI50 in the experiment on A549, in the experiment on ACHN, with BT-549, in the experiment on CCRF-CEM, in the experiment on DU-145 and with HCT-116 was > 100 µM (inactive) each time. The GI50 in the experiment with HCT-15 was greater than 100 µM; with HOP-62, > 100 µM (inactive); in the experiment on NCI-H23, > 100 µM (inactive); with NCI-H522, > 100 µM (inactive); in the experiment with NCI/ADR-RES it was > 100 µM (inactive); in the experiment with OVCAR-3, > 100 µM (inactive). The GI50 in the experiment on PC-3, in the experiment on SK-MEL-5, with U-251 and in the experiment with UO-31 was > 100 µM (inactive) throughout.
Take `Cc1cc(OP2(=O)NCc3ncccc3O2)ccc1Cl` (configuration not stated): the GI50 in the experiment on A549, with ACHN, in the experiment on BT-549, with CCRF-CEM, in the experiment on DU-145 and in the experiment on HCT-116 was > 100 µM (inactive) in each case. The GI50 in the experiment on HCT-15 is greater than 100 µM; in the experiment with HOP-62 it was > 100 µM (inactive); in the experiment with K562, 84.5 µM (inactive); with NCI-H226, > 100 µM (inactive); with NCI-H23, > 100 µM (inactive); in the experiment on NCI/ADR-RES, > 100 µM (inactive). For the same compound, the GI50 in the experiment with OVCAR-3, with OVCAR-4, with PC-3, in the experiment on RXF 393, in the experiment on SK-MEL-5 and in the experiment with U-251 was > 100 µM (inactive) throughout. The GI50 in the experiment on UO-31 is > 100 µM (inactive).
`CC[C@@]1(C[C@H]2C[C@@]3(C(=O)OC)c4[nH]c5ccccc5c4CCN3C2=S)COC2(CCCCC2)O1`: the GI50 with A549 was 54.6 µM (inactive); in the experiment on ACHN, 45.8 µM (inactive); with BT-549, 4.72 µM (inactive); with CCRF-CEM, 7.23 µM (inactive); in the experiment on DU-145, > 100 µM (inactive); in the experiment with HCT-116, 6.92 µM (inactive). For the same compound, the GI50 in the experiment on HCT-15 was 5.57 µM; in the experiment on HOP-62 it was 22.2 µM (inactive); with K562, 5.48 µM (inactive); with NCI-H23, 21.4 µM (inactive); in the experiment with NCI-H522 it was 59.2 µM (inactive); in the experiment with NCI/ADR-RES, 57 µM (inactive). The GI50 is 55.7 µM (inactive) in the experiment with OVCAR-3; > 100 µM (inactive) with OVCAR-4; 4.97 µM (inactive) in the experiment with PC-3; 59.6 µM (inactive) in the experiment with RXF 393; 3.12 µM (inactive) in the experiment on SK-MEL-5; 3.75 µM (inactive) in the experiment with U-251. For the same compound, the GI50 in the experiment on UO-31 is 7.78 µM (inactive).
With `COC(=O)CNC(=O)C(C)NC(=O)C(CC(=O)OCc1ccccc1)NC(=O)OCc1ccccc1` (stereo not drawn) (Cbz-Asp(OBn)-Ala-Gly-OMe; configuration not given here), the GI50 was 39.5 µM (inactive) in the experiment on A549; 37.8 µM (inactive) in the experiment with BT-549; 93.5 µM (inactive) with DU-145; 30.6 µM (inactive) in the experiment with HCT-116; 53.7 µM with HCT-15; > 100 µM (inactive) with HOP-62. Also, the GI50 was 27.5 µM (inactive) in the experiment on K562; 36.1 µM (inactive) in the experiment with NCI-H226; 36.6 µM (inactive) in the experiment with NCI-H23; 34.3 µM (inactive) in the experiment with NCI-H522; 67.1 µM (inactive) in the experiment with NCI/ADR-RES; 75 µM (inactive) in the experiment with OVCAR-3. The GI50 was 24 µM (inactive) with PC-3; 13.8 µM (inactive) with RXF 393; 17 µM (inactive) in the experiment on SK-MEL-5; 47 µM (inactive) in the experiment on U-251; 19.1 µM (inactive) with UO-31.
In the case of `O=C1C(O)=C(CCCCCCCCC2CCCCC2)C(=O)c2ccccc21` [MENOCTONE], the GI50 is 5.58 µM (inactive) with A549; 2.93 µM (inactive) in the experiment with ACHN; 11.7 µM (inactive) in the experiment with BT-549; 2.72 µM (inactive) with CCRF-CEM; 7.45 µM (inactive) in the experiment with DU-145; 3.33 µM (inactive) in the experiment with HCT-116. Moreover, the GI50 in the experiment on HCT-15 was 4.69 µM; with HOP-62 it was 11.6 µM (inactive); in the experiment on K562, 2.51 µM (inactive); in the experiment with NCI-H23 it was 3.33 µM (inactive); in the experiment with NCI-H522, 6.24 µM (inactive); in the experiment on NCI/ADR-RES, 6.34 µM (inactive). Also, the GI50 in the experiment with OVCAR-3 is 10.7 µM (inactive); in the experiment on OVCAR-4 it was 16.5 µM (inactive); in the experiment on PC-3, 5.09 µM (inactive); in the experiment with SK-MEL-5 it was 10.4 µM (inactive); in the experiment on U-251, 5.71 µM (inactive); in the experiment on UO-31 it was 8.34 µM (inactive).
